Data: patent US20190100534A1, “Cephem Compounds with Latent Reactive Groups” (Gladius Pharmaceuticals, Inc., priority 2017, published 2019)

What was measured:
Experiment in all cases: MIC determination, isogenic E. coli strains
Assay type in all cases: cell-based
[1] = tested on: Isogenic E. coli J58 strain carrying VIM-2; settings: for Mimimum Inhibitory Concentrations, VIM-2: isogenic E. coli strain, CAMH broth, 20 μM Apo-Transferrin, 37° C., 18 hours; for MIC: Escherichia coli, 18 h, read-out: Mimimum Inhibitory Concentrations, VIM-2
Procedure: (§1) Sterile technique was used throughout these experiments. Suspensions of organisms were removed from storage (−80° C.) and partially thawed. Partially thawed organisms (1 μL) were inoculated into 3 mL sterile LB Broth in a sterile culture tube and capped, then cultured at 37° C. with shaking for 4-5 hours until the optical density at 600 nm (OD600) was greater than 0.1 on a single beam spectrophotometer.
(§2) The concentration of organisms was adjusted to 0.08-0.1 OD600 (0.5 McFarland units) by dilution with sterile cation-adjusted Meuller-Hinton (CAMH) broth. The suspensions were used within 30 minutes of preparation.
(§3) A stock solution was made of each test compound by measuring 6.4 mg of the compound on an analytical balance and dissolving it in DMSO (1 mL) to get a transparent solution. The solutions were stored at −20° C. and thawed prior to use.
(§4) Sterile CAMH broth (200 μL) containing 20 μM Apo-Transferrin was pipetted into the first row of 8 columns of a sterile, round-bottomed, transparent, 96-well microplate using an 8-channel pipette equipped with sterile tips. One hundred μL was pipetted into the wells of the remaining 11 rows.
(§5) With an 8-channel pipette equipped with sterile tips, 100 μL of the first row solution was transferred to the second row and mixed. The process was repeated for the second to third rows and continued through row 11. One hundred μL from row 11 was removed and discarded so that all 12 rows contained 100 μL. Row 12 contained no compound and rows 1-11 contained 64, 32, 16, 8, 4, 2, 1, 0.5, 0.25, 0.125, […] of a given compound.
(§6) Inoculant suspensions (0.5 μL) were added to the 12 wells of each column. The plates were then covered and incubated at 37° C. overnight for 18 hours.
(§7) For each organism the MIC was determined by identifying the transparent well with the lowest test compound concentration.
VIM-2 (Group 3a carbapenemase, metallo-beta-lactamase); and
(§8) The gene sequence for each beta-lactamase enzyme was synthesized and inserted into the pBC-SK(+) plasmid by GenScript, a commercial service. E. coli J53 was transformed with each plasmid via electroporation and resistant transformants were selected on agar plates containing 50 micrograms/mL ampicillin. The selected transformants were stored at −80 degrees C. in 20% glycerol.

[2] = tested on: Isogenic E. coli J58 strain carrying NDM-1; settings: for Mimimum Inhibitory Concentrations, NDM-1: isogenic E. coli strain, CAMH broth, 20 μM Apo-Transferrin, 37° C., 18 hours; for MIC: Escherichia coli, 18 h, read-out: Mimimum Inhibitory Concentrations, NDM-1
Procedure: as §1, §2, §3, §4, §5, §6, §7
NDM-1 (Group 3a carbapenemase, broad spectrum divalent Zn^++ metallo-Beta-Lactamase);
as §8

E. coli J53 Alone = settings: for Mimimum Inhibitory Concentrations, J53 Alone: CAMH broth, 20 μM Apo-Transferrin, 37° C., 18 hours; for MIC: Escherichia coli, J53ALONE, 18 h, read-out: Mimimum Inhibitory Concentrations, J53 Alone
Procedure: as §1, §2, §3, §4, §5, §6, §7, §8

[3] = tested on: Isogenic E. coli J58 strain carrying DHA-1; settings: for Mimimum Inhibitory Concentrations, DHA-1: isogenic E. coli strain, CAMH broth, 20 μM Apo-Transferrin, 37° C., 18 hours; for MIC: Escherichia coli, 18 h, read-out: Mimimum Inhibitory Concentrations, DHA-1
Procedure: as §1, §2, §3, §4, §5, §6, §7, §8

[4] = tested on: Isogenic E. coli J58 strain carrying CTX-M-14; settings: for Mimimum Inhibitory Concentrations, CTX-M-14: isogenic E. coli strain, CAMH broth, 20 μM Apo-Transferrin, 37° C., 18 hours; for MIC: Escherichia coli, 18 h, read-out: Mimimum Inhibitory Concentrations, CTX-M-14
Procedure: as §1, §2, §3, §4, §5, §6, §7
(§9) CTX-M-14 and CTX-M-15 (Class A, Group 2be beta-lactamases, hydrolyzes extended spectrum cephalosporins and monobactams);
as §8

[5] = tested on: Isogenic E. coli J58 strain carrying CTX-M-15; settings: for Mimimum Inhibitory Concentrations, CTX-M-15: isogenic E. coli strain, CAMH broth, 20 μM Apo-Transferrin, 37° C., 18 hours; for MIC: Escherichia coli, 18 h, read-out: Mimimum Inhibitory Concentrations, CTX-M-15
Procedure: as §1, §2, §3, §4, §5, §6, §7, §9, §8

[6] = tested on: Isogenic E. coli J58 strain carrying TEM-26; settings: for Mimimum Inhibitory Concentrations, TEM-26: isogenic E. coli strain, CAMH broth, 20 μM Apo-Transferrin, 37° C., 18 hours; for MIC: Escherichia coli, 18 h, read-out: Mimimum Inhibitory Concentrations, TEM-26
Procedure: as §1, §2, §3, §4, §5, §6, §7
TEM-26 (Group 2be beta-lactamase, hydrolyzes extended spectrum cephalosporins and monobactams), [25];
as §8

[7] = tested on: Isogenic E. coli J58 strain carrying KPC-3; settings: for Mimimum Inhibitory Concentrations, KPC-3: isogenic E. coli strain, CAMH broth, 20 μM Apo-Transferrin, 37° C., 18 hours; for MIC: Escherichia coli, 18 h, read-out: Mimimum Inhibitory Concentrations, KPC-3
Procedure: as §1, §2, §3, §4, §5, §6, §7
(§10) KPC-2 and KPC-3 (Class A, Group 2f, carbapenemases);
as §8

[8] = tested on: Isogenic E. coli J58 strain carrying KPC-2; settings: for Mimimum Inhibitory Concentrations, KPC-2: isogenic E. coli strain, CAMH broth, 20 μM Apo-Transferrin, 37° C., 18 hours; for MIC: Escherichia coli, 18 h, read-out: Mimimum Inhibitory Concentrations, KPC-2
Procedure: as §1, §2, §3, §4, §5, §6, §7, §10, §8

[9] = tested on: Isogenic E. coli J58 strain carrying SHV-1; settings: for Mimimum Inhibitory Concentrations, SHV-1: isogenic E. coli strain, CAMH broth, 20 μM Apo-Transferrin, 37° C., 18 hours; for MIC: Escherichia coli, 18 h, read-out: Mimimum Inhibitory Concentrations, SHV-1
Procedure: as §1, §2, §3, §4, §5, §6, §7
SHV-1 (Class A, Group 2b beta-lactamase, hydrolyzes penicillins and early cephalosporins);
as §8

[10] = tested on: Isogenic E. coli J58 strain carrying IMP-1; settings: for Mimimum Inhibitory Concentrations, IMP-1: isogenic E. coli strain, CAMH broth, 20 μM Apo-Transferrin, 37° C., 18 hours; for MIC: Escherichia coli, 18 h, read-out: Mimimum Inhibitory Concentrations, IMP-1
Procedure: as §1, §2, §3, §4, §5, §6, §7
IMP-1 (Group 3a carbapenemase, metallo-beta-Lactamase).
as §8

| SMILES | Mimimum Inhibitory Concentrations, VIM-2 [1] | Mimimum Inhibitory Concentrations, NDM-1 [2] | Mimimum Inhibitory Concentrations, J53 Alone (E. coli J53 Alone; Table 4-1) | Mimimum Inhibitory Concentrations, J53 Alone (E. coli J53 Alone; Table 4-2) | Mimimum Inhibitory Concentrations, DHA-1 [3] | Mimimum Inhibitory Concentrations, CTX-M-14 [4] | Mimimum Inhibitory Concentrations, CTX-M-15 [5] | Mimimum Inhibitory Concentrations, TEM-26 [6] | Mimimum Inhibitory Concentrations, KPC-3 [7] | MIC [1] | MIC [2] | MIC (E. coli J53 Alone) | MIC [3] | MIC [4] | MIC [5] | MIC [6] | MIC [7] | MIC [8] | MIC [9] | MIC [10] | other results |
| --- | --- | --- | --- | --- | --- | --- | --- | --- | --- | --- | --- | --- | --- | --- | --- | --- | --- | --- | --- | --- | --- |
| CC(C)(O/N=C(\C(=O)N[C@@H]1C(=O)N2C(C(=O)O)=C(C=Cc3ccc(C[N+]4(C5CCC5)CCc5ccc(O)c(O)c5C4)cc3)CS[C@H]12)c1csc(N)n1)C(=O)O (mixture of isomers) [Compound 444, 2-(4-((E/Z)-2-((6R,7R)-7-((Z)-2-(2-aminothiazol-4-yl)-2-(((2-carboxypropan-2-yl)oxy)imino)acetamido)-2-carboxy-8-oxo-5-thia-1-azabicyclo[4.2.0]oct-2-en-3-yl)vinyl)benzyl)-2-cyclobutyl-7,8-dihydroxy-1,2,3,4-tetrahydroisoquinolin-2-ium] | 0.5 microgram/mL | 32 microgram/mL | 0.5 microgram/mL | 0.5 microgram/mL | 1 microgram/mL | 0.25 microgram/mL | 1 microgram/mL | 0.25 microgram/mL | 2 microgram/mL | – | – | – | – | – | – | – | – | – | – | – | MICs for an E. coli strain carrying the gene for NDM-1, in words ([2]; review of Tables 4-1 and 4-2): lower MICS compared to other compounds tested; Mimimum Inhibitory Concentrations, KPC-2 [8]: 8 microgram/mL; Mimimum Inhibitory Concentrations, SHV-1 [9]: 1 microgram/mL; Mimimum Inhibitory Concentrations, IMP-1 [10]: 0.5 microgram/mL |
| CC(C)(O/N=C(\C(=O)N[C@@H]1C(=O)N2C(C(=O)O)=C(C=Cc3ccc(C[N+](C)(C)CCc4ccc(O)c(O)c4)cc3)CS[C@H]12)c1csc(N)n1)C(=O)O (mixture of isomers) [Compound 440, N-(4-((E/Z)-2-((6R,7R)-7-((Z)-2-(2-aminothiazol-4-yl)-2-(((2-carboxypropan-2-yl)oxy)imino)acetamido)-2-carboxy-8-oxo-5-thia-1-azabicyclo[4.2.0]oct-2-en-3-yl)vinyl)benzyl)-2-(3,4-dihydroxyphenyl)-N,N-dimethylethan-1-aminium] | – | – | – | 0.25 microgram/mL | – | – | – | – | – | 0.25 mg/L | > 64 mg/L | 0.25 mg/L | 0.25 mg/L | 2 mg/L | 0.25 mg/L | 1 mg/L | 4 mg/L | 16 mg/L | 1 mg/L | 0.13 mg/L | MICs for an E. coli strain carrying the gene for carbapenemase IMP-1, in words ([10]; review of Tables 4-1 and 4-2): low microgram/mL MICs |
| CO/N=C(\C(=O)N[C@@H]1C(=O)N2C(C(=O)O)=C(C=Cc3ccc(C[n+]4ccc(OC)c(OC)c4)cc3[N+](=O)[O-])CS[C@H]12)c1csc(N)n1 (mixture of isomers) [Compound 392, 1-(4-((E/Z)-2-((6R,7R)-7-((Z)-2-(2-aminothiazol-4-yl)-2-(methoxyimino)acetamido)-2-carboxy-8-oxo-5-thia-1-azabicyclo[4.2.0]oct-2-en-3-yl)vinyl)-3-nitrobenzyl)-3,4-dimethoxypyridin-1-ium] | >64 microgram/mL | >64 microgram/mL | 64 microgram/mL | 64 microgram/mL | >64 microgram/mL | >64 microgram/mL | >64 microgram/mL | 32 microgram/mL | >64 microgram/mL | – | – | – | – | – | – | – | – | – | – | – | Mimimum Inhibitory Concentrations, KPC-2 [8]: >64 microgram/mL; Mimimum Inhibitory Concentrations, SHV-1 [9]: >64 microgram/mL; Mimimum Inhibitory Concentrations, IMP-1 [10]: >64 microgram/mL |
| CC(C)(O/N=C(\C(=O)N[C@@H]1C(=O)N2C(C(=O)O)=C(/C=C/c3ccc(C[n+]4ccn(-c5ccc(O)c(O)c5)c4)cc3)CS[C@H]12)c1csc(N)n1)C(=O)O [Compound 414, 3-(4-((E)-2-((6R,7R)-7-((Z)-2-(2-aminothiazol-4-yl)-2-(((2-carboxypropan-2-yl)oxy)imino)acetamido)-2-carboxy-8-oxo-5-thia-1-azabicyclo[4.2.0]oct-2-en-3-yl)vinyl)benzyl)-1-(3,4-dihydroxyphenyl)-1H-imidazol-3-ium] | – | – | – | 0.25 microgram/mL | – | – | – | – | – | 1 mg/L | > 64 mg/L | 0.25 mg/L | 0.5 mg/L | 2 mg/L | 1 mg/L | 1 mg/L | 4 mg/L | 8 mg/L | 1 mg/L | 8 mg/L | – |
| CC(C)(O/N=C(\C(=O)N[C@@H]1C(=O)N2C(C(=O)O)=C(C=Cc3ccc(C[N+]4(C)CCc5cc(O)c(O)cc5C4)cc3[N+](=O)[O-])CS[C@H]12)c1csc(N)n1)C(=O)O (mixture of isomers) [Compound 445, 2-(4-((E/Z)-2-((6R,7R)-7-((Z)-2-(2-aminothiazol-4-yl)-2-(((2-carboxypropan-2-yl)oxy)imino)acetamido)-2-carboxy-8-oxo-5-thia-1-azabicyclo[4.2.0]oct-2-en-3-yl)vinyl)-3-nitrobenzyl)-6,7-dihydroxy-2-methyl-1,2,3,4-tetrahydroisoquinolin-2-ium] | – | – | – | 1 microgram/mL | – | – | – | – | – | 0.25 mg/L | > 64 mg/L | 1 mg/L | 1 mg/L | 4 mg/L | 4 mg/L | 1 mg/L | 16 mg/L | 64 mg/L | 1 mg/L | 1 mg/L | – |
| Cn1c[n+](Cc2ccc(C=CC3=C(C(=O)O)N4C(=O)[C@@H](NC(=O)/C(=N\OC(C)(C)C(=O)O)c5csc(N)n5)[C@H]4SC3)cc2)c2cc(O)c(O)cc21 (mixture of isomers) [Compound 415, 3-(4-((E/Z)-2-((6R,7R)-7-((Z)-2-(2-aminothiazol-4-yl)-2-(((2-carboxypropan-2-yl)oxy)imino)acetamido)-2-carboxy-8-oxo-5-thia-1-azabicyclo[4.2.0]oct-2-en-3-yl)vinyl)benzyl)-5,6-dihydroxy-1-methyl-1H-benzo[d]imidazol-3-ium] | – | – | – | 0.5 microgram/mL | – | – | – | – | – | 1 mg/L | > 64 mg/L | 0.5 mg/L | 0.5 mg/L | 2 mg/L | 1 mg/L | 1 mg/L | 8 mg/L | 16 mg/L | 1 mg/L | 16 mg/L | – |
